The values below come from patent US7109193B2, “Tricyclic diazepines tocolytic oxytocin receptor antagonists” (Wyeth, priority 2001, dated 2006).

The target in this assay is T1, human vasopressin V2 receptor subtype (Homo sapiens, UniProt P30518).
T1 construct: host or cells: CHO cells (pZeoSV vector)
As to the kind of experiment: Vasopressin binding in Chinese Hamster Ovary cell membranes expressing human vasopressin V2 subtype receptors. The note with it: 100 nM, CHO cell membranes, [3H]arginine vasopressin, values without parentheses. The procedure: Vasopressin Binding in Chinese Hamster Ovary Cell Membranes Expressing Human Vasopressin V2 Subtype Receptors
Chinese Hamster Ovary (CHO) cells stably transfected with the human V2 subtype receptors were obtained from M. Thibonnier, Case Western Reserve University School of Medicine, Cleveland, Ohio.
A. Passaging and Amplification of Cells:
The trypsin is removed by aspiration and the cells dislodged by tapping. Cell Culture medium (e.g. 30 mL for 1:30 split) is immediately added and mixed well to inactivate trypsin. 1 mL of detached cells is added to new culture flasks containing fresh Cell Culture medium (e.g. into 25 mL per T-150 flask), and mixed gently. The cells are incubated at 37° C. in 5% CO2. The medium is changed at 3 to 4 day interval (or as appropriate). […] All steps are done under sterile conditions. B. Membrane Preparation: The cells are washed twice gently with Hank's Balanced Salt solution (e.g. use 10 mL per T-150 flask). […] The contents are transferred to centrifuge tubes (50 mL) kept in ice bath. All subsequent steps are done at 4° C. The tubes are centrifuged at 300×g for 15 min (1380 rpm on SORVAL, Model RT6000D, using the rotor for 50 mL tubes). The supernatant is discarded and the cells suspended in homogenizing buffer (10 mM Tris-HCl containing 0.25 M sucrose and 1 mM EDTA, pH 7.4) ensuring that the volume of the buffer is about ten times the volume of the cell pellet. The cells are pooled into a centrifuge tube (50 mL) and homogenized with a Polytron at setting 6 for 10 sec. The homogenate is transferred into a Potter-Elvjehm homogenizer and homogenized with 3 strokes. The homogenate is centrifuged at 1500×g for 60 min at 4° C. (3100 rpm using SORVAL, model RT6000D, using the rotor for 50 mL tubes). The pellet is discarded. The supernatant is centrifuged at 100,000×g for 60 min. at 4° C. (Beckman L8-80M ultracentrifuge; spin at 37,500 rpm with rotor type 70 Ti for 50 mL tubes; 38,000 rpm with type 80Ti for 15 mL tubes; or 35,800 rpm with rotor type 45Ti). The supernantant is discarded and the pellet suspended in 3 to 4 mL of Tris buffer (50 mM TRIS-HCl, pH 7.4). The protein content is estimated by the Bradford or Lowry method. The volume of the membrane suspension is adjusted with the membrane buffer (50 mM Tris-HCl containing 0.1% BSA and 0.1 mM PMSF) to give 3.0 mg/mL (or as appropriate) of protein. The membranes are aliquoted and stored at −70° C. C. Radioligand Binding Assay: In wells of a 96-well format microtiter plate, is added 90, 110 or 130 μL (to make up a final volume of 200 μL) of assay buffer containing 50 mM of Tris-HCl (pH 7.4), […], 1 mg % aprotinin, 1 mg % leupeptin, 2 mg % 1,10-phenanthroline, 10 mg % trypsin inhibitor, and 0.1 mM PMSF. The inhibitors are added on the day of the experiment. The components are mixed at room temperature, and then kept in ice bath following adjustment of the pH to 7.4. […] For vasopressin and other peptide ligands 20 μL of 50% DMSO is added and the assay buffer volume is adjusted accordingly. To each well is added 50 μL of frozen membrane suspension thawed immediately prior to use and diluted in assay buffer to the required concentration (equivalent to 25 to 50 μg of protein/well as needed). 20 μL of 8 nM [^3H]arginine vasopressin ligand in the assay buffer, prepared just before use is added and incubated at room temperature for 60 min. shaking the plate on a mechanical shaker for the first 15 min. The incubation is stopped by rapid filtration of the plate contents followed by wash with ice-cold buffer (50 mM Tris-HCl, pH 7.4) using a cell harvester (Tomtek and Printed filtermat-B filter paper). The filter paper is thoroughly dried (7–12 min. in a microwave oven) and impregnated with MeltiLex B/H melt-on scintillation wax sheets and the radioactivity counted in a betaplate scintillation counter.

T1 sequence (P30518 whole entry): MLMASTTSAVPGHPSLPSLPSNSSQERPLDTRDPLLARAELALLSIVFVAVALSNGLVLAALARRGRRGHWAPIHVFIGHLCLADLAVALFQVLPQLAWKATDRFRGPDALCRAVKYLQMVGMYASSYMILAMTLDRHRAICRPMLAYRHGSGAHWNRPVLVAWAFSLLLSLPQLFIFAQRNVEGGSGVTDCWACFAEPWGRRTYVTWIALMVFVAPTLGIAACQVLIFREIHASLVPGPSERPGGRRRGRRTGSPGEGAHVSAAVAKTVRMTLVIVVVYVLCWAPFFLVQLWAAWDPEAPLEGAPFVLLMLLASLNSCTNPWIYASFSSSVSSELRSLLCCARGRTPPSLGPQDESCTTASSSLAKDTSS

A word on the inhibition: it is the drop in the measured response relative to a control, in per cent. For the compound `COc1ccccc1-c1ccc(C(=O)N2Cc3ccc(C(=O)N4CCC(N5CCCCC5)CC4)n3Cc3ccccc32)cc1OC` [Example 119, {10-[(2,2′-Dimethoxy-[1,1′-biphenyl]-4-yl)carbonyl]-10,11-dihydro-5H-pyrrolo[2,1-c][1,4]benzodiazepin-3-yl}[4-(1-piperidinyl)-1-piperidinyl]methanone], the inhibition at 0.1 µM was determined as 15%. With `COc1cccc(-c2ccc(C(=O)N3Cc4ccc(C(=O)N5CCC[C@H]5CN5CCCC5)n4Cc4ccccc43)cc2OC)c1` [Example 270, {10-[(2,3′-Dimethoxy[1,1′-biphenyl]-4-yl)carbonyl]-10,11-dihydro-5H-pyrrolo[2,1-c][1,4]benzodiazepin-3-yl}[(2S)-2-(1-pyrrolidinylmethyl)pyrrolidinyl]methanone], the “V2 % inhibition @ 100 nM” value is listed as 25%. On to `Cc1ccccc1-c1ccc(C(=O)N2Cc3ccc(C(=O)N4CCC(N5CCCCC5)CC4)n3Cc3ccccc32)cc1C` [Example 113, {10-[(2-Methyl-2′-methyl[1,1′-biphenyl]-4-yl)carbonyl]-10,11-dihydro-5H-pyrrolo[2,1-c][1,4]benzodiazepin-3-yl}[4-(1-piperidinyl)-1-piperidinyl]methanone], for which the inhibition at 0.1 µM amounted to 9%. Regarding `COc1cccc(-c2ccc(C(=O)N3Cc4ccc(C(=O)N5CCC(N6CCCC6)CC5)n4Cc4ccccc43)cc2C)c1` [Example 139, {10-[(3′-Methoxy-2-methyl[1,1′-biphenyl]-4-yl)carbonyl]-10,11-dihydro-5H-pyrrolo[2,1-c][1,4]benzodiazepin-3-yl}[4-(1-pyrrolidinyl)-1-piperidinyl]methanone], the inhibition at 0.1 µM was 12%. As to `COc1cc(C(=O)N2Cc3ccc(C(=O)N4CCC(N5CCCCC5)CC4)n3Cc3ccccc32)ccc1-c1cccc2ccccc12` [Example 118, {10-[3-Methoxy-4-(1-naphthyl)-benzoyl]-10,11-dihydro-5H-pyrrolo[2,1-c][1,4]benzodiazepin-3-yl}[4-(1-piperidinyl)-1-piperidinyl]methanone], the inhibition at 0.1 µM was found to be 39%. On the same count and under the same terms, with `O=C(c1ccc2n1Cc1ccccc1N(C(=O)c1ccc(-c3cccc4ccccc34)cc1Cl)C2)N1CCC(N2CCCC2)CC1` [Example 147, {10-[2-Chloro-4-(1-naphthyl)benzoyl]-10,11-dihydro-5H-pyrrolo[2,1-c][1,4]benzodiazepin-3-yl}[4-(1-pyrrolidinyl)-1-piperidinyl]methanone] the figure was 20%. Consider `COc1cc(C(=O)N2Cc3ccc(C(=O)N4CC[C@@H](N(C)C)C4)n3Cc3ccccc32)ccc1-n1c(C)ccc1C` [Example 322, [(3R)-3-(Dimethylamino)pyrrolidinyl]{10-[4-(2,5-dimethyl-1H-pyrrol-1-yl)-3-methoxybenzoyl]-10,11-dihydro-5H-pyrrolo[2,1-c][1,4]benzodiazepin-3-yl}methanone], for which the “V2 % inhibition @ 100 nM” value is 24%.

For `COc1cc(C(=O)N2Cc3ccc(C(=O)N4CCC(N5CCCC5)CC4)n3Cc3ccccc32)ccc1-c1cccc2ccccc12` [Example 144, {10-[3-Methoxy-4-(1-naphthyl)benzoyl]-10,11-dihydro-5H-pyrrolo[2,1-c][1,4]benzodiazepin-3-yl}[4-(1-pyrrolidinyl)-1-piperidinyl]methanone], the inhibition at 0.1 µM is 3%. Take `COc1ccccc1-c1ccc(C(=O)N2Cc3ccc(C(=O)N4CCC[C@H]4CN4CCCC4)n3Cc3ccccc32)cc1C` [Example 259, {10-[(2′-Methoxy-2-methyl[1,1′-biphenyl]-4-yl)carbonyl]-10,11-dihydro-5H-pyrrolo[2,1-c][1,4]benzodiazepin-3-yl}[(2S)-2-(1-pyrrolidinylmethyl)pyrrolidinyl]methanone]: the “V2 % inhibition @ 100 nM” value is −3%.

Regarding `Cc1ccccc1-c1ccc(C(=O)N2Cc3ccc(C(=O)NCCN4CCCCC4)n3Cc3ccccc32)cc1` [Example 153, 10-[(2′-Methyl[1,1′-biphenyl]-4-yl)carbonyl]-N-[2-(1-piperidinyl)ethyl]-10,11-dihydro-5H-pyrrolo[2,1-c][1,4]benzodiazepine-3-carboxamide], the inhibition at 0.1 µM is 11%. On the same count and under the same terms, the result for `Cc1cc(C(=O)N2Cc3ccc(C(=O)NCCCn4ccnc4)n3Cc3ccccc32)ccc1-c1ccccc1C(F)(F)F` [Example 135, N-[3-(1H-Imidazol-1-yl)propyl]-10-{[2-methyl-2′-(trifluoromethyl)[1,1′-biphenyl]-4-yl]carbonyl}-10,11-dihydro-5H-pyrrolo[2,1-c][1,4]benzodiazepine-3-carboxamide] reads 1%.

With `COc1ccccc1-c1ccc(C(=O)N2Cc3ccc(C(=O)N4CCC[C@H]4CN4CCCC4)n3Cc3ccccc32)cc1OC` [Example 269, {10-[(2,2′-Dimethoxy[1,1′-biphenyl]-4-yl)carbonyl]-10,11-dihydro-5H-pyrrolo[2,1-c][1,4]benzodiazepin-3-yl}[(2S)-2-(1-pyrrolidinylmethyl)pyrrolidinyl]methanone], the “V2 % inhibition @ 100 nM” value is given as −19%. Same read-out and setting: with `O=C(c1ccc(-c2cccc3ccccc23)cc1Cl)N1Cc2ccc(C(=O)N3CCC[C@H]3CN3CCCC3)n2Cc2ccccc21` [Example 261, {10-[2-Chloro-4-(1-naphthyl)benzoyl]-10,11-dihydro-5H-pyrrolo[2,1-c][1,4]benzodiazepin-3-yl}[(2S)-2-(1-pyrrolidinylmethyl)pyrrolidinyl]methanone] the figure was 18%. `COc1ccccc1-c1ccc(C(=O)N2Cc3ccc(C(=O)NCCCn4ccnc4)n3Cc3ccccc32)cc1OC` [Example 132, 10-[(2,2′-Dimethoxy[1,1′-biphenyl]-4-yl)carbonyl]-N-[3-(1H-imidazol-1-yl)propyl]-10,11-dihydro-5H-pyrrolo[2,1-c][1,4]benzodiazepine-3-carboxamide]: the inhibition at 0.1 µM is 16%. As to `Cc1ccccc1-c1ccc(C(=O)N2Cc3ccc(C(=O)N4CCC(N5CCCC5)CC4)n3Cc3ccccc32)cc1` [Example 141, {10-[(2′-Methyl[1,1′-biphenyl]-4-yl)carbonyl]-10,11-dihydro-5H-pyrrolo[2,1-c][1,4]benzodiazepin-3-yl}[4-(1-pyrrolidinyl)-1-piperidinyl]methanone], the inhibition at 0.1 µM was determined as 8%. With `COc1ccccc1-c1ccc(C(=O)N2Cc3ccc(C(=O)N4CC[C@@H](N(C)C)C4)n3Cc3ccccc32)cc1` [Example 279, [(3R)-3-(Dimethylamino)pyrrolidinyl]{10-[(2′-methoxy[1,1′-biphenyl]-4-yl)carbonyl]-10,11-dihydro-5H-pyrrolo[2,1-c][1,4]benzodiazepin-3-yl}methanone], the “V2 % inhibition @ 100 nM” value was determined as 17%.

In the case of `O=C(NCCCn1ccnc1)c1ccc2n1Cc1ccccc1N(C(=O)c1ccc(-c3cccc4ccccc34)cc1Cl)C2` [Example 134, 10-[2-Chloro-4-(1-naphthyl)benzoyl]-N-[3-(1H-imidazol-1-yl)propyl]-10,11-dihydro-5H-pyrrolo[2,1-c][1,4]benzodiazepine-3-carboxamide], the inhibition at 0.1 µM was found to be 16%. For `COc1ccccc1-c1ccc(C(=O)N2Cc3ccc(C(=O)N4CC[C@@H](N(C)C)C4)n3Cc3ccccc32)cc1OC` [Example 282, {10-[(2,2′-Dimethoxy[1,1′-biphenyl]-4-yl)carbonyl]-10,11-dihydro-5H-pyrrolo[2,1-c][1,4]benzodiazepin-3-yl][(3R)-3-(dimethylamino)pyrrolidinyl]methanone], the “V2 % inhibition @ 100 nM” value was −17%.
